Data: patent US10414759B2, “Phenylthiazoles and uses thereof” (Purdue Research Foundation, priority 2017, dated 2019)
Values after ≈ are worked out from the molar mass of the structure shown.

Experiments:
[1] = system: human colorectal (Caco-2) cell; test: In vitro cytotoxicity against Caco-2 cells (MTS); type: cell-based; details: at 32 μg/mL
Protocol: Tested compounds were assayed (at concentrations of 16, 32, and 64 μg/mL) against a human colorectal (Caco-2) cell to determine the potential toxic effect to mammalian cells in vitro. Briefly, cells were cultured in Dulbecco's Modified Eagle Medium (DMEM) supplemented with 20% fetal bovine serum (FBS), non-essential amino acids (1×), and penicillin-streptomycin at 37° C. with CO2 (5%). Control cells received DMSO alone at a concentration equal to that in drug-treated cell samples. The cells were incubated with the compounds (in triplicate) in a 96-well plate at 37° C. with CO2 (5%) for two hours. The assay reagent MTS 3-(4,5-dimethylthiazol-2-yl)-5-(3-carboxymethoxyphenyl)-2-(4-sulfophenyl)-2H-tetrazolium) (Promega, Madison, Wis., USA) was subsequently added and the plate was incubated for four hours. Absorbance readings (at OD490) were taken using a kinetic microplate reader (Molecular Devices, Sunnyvale, Calif., USA). The quantity of viable cells after treatment with each compound was expressed as a percentage of the viability of DMSO-treated control cells (average of triplicate wells±standard deviation). The toxicity data was analyzed via a two-way ANOVA, with post hoc Sidak's multiple comparisons test (P<0.05), utilizing GraphPad Prism 6.0 (GraphPad Software, La Jolla, Calif.).

S. aureus NRS107 = test: MIC/MBC S. aureus strains (Table 8); type: cell-based, Staphylococcus aureus; details: Staphylococcus aureus; Table 8; S. aureus NRS107
Protocol: (§1) A bacterial solution equivalent to 0.5 McFarland standard was prepared and diluted in cation-adjusted Mueller-Hinton broth (CAMHB) to achieve a bacterial concentration of about 5×10^5 CFU/mL and seeded in 96-well plates. Enterococcus faecium was diluted in brain heart infusion broth. Enterococcus faecalis, Streptococcus pneumonia and Listeria monocytogenes were diluted in tryptone soya broth (TSB).

MRSA (USA300) = test: Time-kill assay; type: cell-based, Staphylococcus aureus
Protocol: Aliquots (100 μL) were taken from each sample after 2, 4, 6, 8, 10, 12, and 24 hours, serially diluted in phosphate-buffered saline, and transferred to Trypticase soy agar (TSA) (Becton, Dickinson and Company, Sparks, Md., USA) plates. Plates were incubated at 37° C. for at least 16 hours before counting viable CFU/mL to determine the time required to reduce the bacterial cell count by 3-log10.

S. aureus ATCC 6538 = test: MIC/MBC S. aureus strains (Table 8); type: cell-based; details: Staphylococcus aureus, ATCC6538
Protocol: as §1

MRSA NRS386 = test: MIC/MBC S. aureus strains (Table 8); type: cell-based; details: Staphylococcus aureus
Protocol: as §1

MRSA NRS384 (USA300) = test: MIC/MBC S. aureus strains (Table 8); type: cell-based; details: Staphylococcus aureus
Protocol: as §1

MRSA NRS119 = test: MIC/MBC S. aureus strains (Table 8); type: cell-based; details: Staphylococcus aureus
Protocol: as §1

MRSA NRS123 (USA400) = test: MIC/MBC S. aureus strains (Table 8); type: cell-based; details: Staphylococcus aureus
Protocol: as §1

MRSA NRS385 = test: MIC/MBC S. aureus strains (Table 8); type: cell-based; details: Staphylococcus aureus
Protocol: as §1

[2] = system: Enterococcus faecalis ATCC 51299 (VRE); test: MIC/MBC Gram-positive pathogens (Table 9); type: cell-based; details: Table 9; Enterococcus faecalis ATCC 51299 (VRE)
Protocol: as §1

[3] = system: Methicillin-resistant Streptococcus pneumoniae ATCC 700677; test: MIC/MBC Gram-positive pathogens (Table 9); type: cell-based; details: ATCC700677
Protocol: as §1

[4] = system: Listeria monocytogenes ATCC 19111; test: MIC/MBC Gram-positive pathogens (Table 9); type: cell-based
Protocol: as §1

[5] = system: Cephalosporin-resistant Streptococcus pneumoniae ATCC 51916; test: MIC/MBC Gram-positive pathogens (Table 9); type: cell-based; details: ATCC51916
Protocol: as §1

[6] = system: Methicillin-resistant Staphylococcus epidermidis NRS101; test: MIC/MBC Gram-positive pathogens (Table 9); type: cell-based
Protocol: as §1

[7] = system: Enterococcus faecium ATCC 700221 (VRE); test: MIC/MBC Gram-positive pathogens (Table 9); type: cell-based; details: Table 9; Enterococcus faecium ATCC 700221 (VRE); read-out: MIC
Protocol: (§2) The minimum inhibitory concentration (MIC) of tested compounds and control antibiotics were determined using the broth microdilution method in accordance with the recommendations contained in the Clinical and Laboratory Standards Institute guidelines, against methicillin-sensitive (ATCC 6538 and NRS107), methicillin-resistant (MRSA), and vancomycin-resistant (VRSA) Staphylococcus aureus, Staphylococcus epidermidis, Enterococcus faecalis, E. faecium, Listeria monocytogenes, and Streptococcus pneumoniae clinical isolates. A bacterial solution equivalent to 0.5 McFarland standard was prepared and diluted in cation-adjusted Mueller-Hinton broth (CAMHB) to achieve a bacterial concentration of about 5×10^5 CFU/mL and seeded in 96-well plates. Enterococcus faecium was diluted in brain heart infusion broth. Enterococcus faecalis, Streptococcus pneumonia and Listeria monocytogenes were diluted in tryptone soya broth (TSB). Compounds and control drugs were added in the first row of 96-well plates and serially diluted (to achieve a concentration gradient ranging from 128 to 1 μg/mL). Plates were then incubated aerobically at 37° C. for at least 18 hours. The minimum bactericidal concentration (MBC) of the active compounds was tested by plating 5 μL from wells with no growth onto Tryptic soy agar (TSA) plates.

MRSA (2658 RCMB) = test: MIC against MRSA (2658 RCMB), broth dilution; type: cell-based, Staphylococcus aureus; details: Staphylococcus aureus; Table 7; initial screening, MRSA (2658 RCMB); read-out: minimum inhibitory concentration (MIC)
Protocol: Bacteria were cultured in cation-adjusted Mueller Hinton broth in a 96-well plate. Compounds, using triplicate samples, were added to the plate and serially diluted. […] Plates were visually inspected and the MIC was categorized as the concentration at which no visible growth of bacteria was observed. The average of triplicate MIC determinations is reported.
as §1

VRS12 (VRSA) = test: MIC/MBC S. aureus strains (Table 8); type: cell-based; details: Staphylococcus aureus, Table 8, VRS12 (VRSA)
Protocol: as §2

VRS10 (VRSA) = test: MIC/MBC S. aureus strains (Table 8); type: cell-based; details: Staphylococcus aureus, Table 8, VRS10 (VRSA)
Protocol: as §2

[8] = ATCC19111, Table 9, Listeria monocytogenes ATCC 19111

- MIC (S. aureus NRS107): 4 µg/mL (≈ 9.33 µM)
- MIC (S. aureus ATCC 6538): 4 µg/mL (≈ 9.33 µM)
- MIC (MRSA NRS386): 4 µg/mL (≈ 9.33 µM)
- MIC (MRSA NRS384 (USA300)): 4 µg/mL (≈ 9.33 µM)
- MIC (MRSA NRS119): 4 µg/mL (≈ 9.33 µM)
- MIC (MRSA NRS123 (USA400)): 4 µg/mL (≈ 9.33 µM)
- MIC (MRSA NRS385): 4 µg/mL (≈ 9.33 µM)
- MIC [2]: 8 µg/mL (≈ 18.7 µM)
- MIC [3]: 4 µg/mL (≈ 9.33 µM)
- MIC [4, 8]: 4 µg/mL (≈ 9.33 µM)
- MBC values relative to MIC values against L. monocytogenes ([4]; text b122): more than three-fold higher
- MIC [5]: 4 µg/mL (≈ 9.33 µM)
- MIC [6]: 64 µg/mL (≈ 149 µM)
- MIC [7]: 8 µg/mL (≈ 18.7 µM)
- MIC (MRSA (2658 RCMB)): 0.78 µg/mL (≈ 1.82 µM)
- MIC (VRS12 (VRSA); read-out: MIC): 4 µg/mL (≈ 9.33 µM)
- MIC (VRS10 (VRSA); read-out: MIC): 4 µg/mL (≈ 9.33 µM)
SMILES: Cc1nc(-c2ccc(C(C)(C)C)cc2)sc1-c1ccnc(NC(=N)c2cccnc2)n1 [Compound 63, N-(4-(2-(4-(tert-Butyl)phenyl)-4-methylthiazol-5-yl)pyrimidin-2-yl) nicotinimidamide]
- tolerability to human colorectal cells, in words [1]: highly tolerable
- MBC (S. aureus NRS107): 4 µg/mL (≈ 9.33 µM)
- bactericidal / bacteriostatic behaviour in time-kill assay, in words (MRSA (USA300); MRSA, 3.0×MIC): bacteriostatic activity
- decrease in MRSA CFU (MRSA (USA300); over 24 hours): 2.3 log
- MBC (S. aureus ATCC 6538): 4 µg/mL (≈ 9.33 µM)
- MBC (MRSA NRS386): 4 µg/mL (≈ 9.33 µM)
- MBC (MRSA NRS384 (USA300)): 4 µg/mL (≈ 9.33 µM)
- MBC (MRSA NRS119): 4 µg/mL (≈ 9.33 µM)
- MBC (MRSA NRS123 (USA400)): 4 µg/mL (≈ 9.33 µM)
- MBC (MRSA NRS385): 4 µg/mL (≈ 9.33 µM)
- MBC [3]: 8 µg/mL (≈ 18.7 µM)
- MBC [4, 8]: 64 µg/mL (≈ 149 µM)
- MBC [5]: 8 µg/mL (≈ 18.7 µM)
- MBC [6]: > 64 µg/mL
- MBC (VRS12 (VRSA); read-out: MBC): 4 µg/mL (≈ 9.33 µM)
- MBC (VRS10 (VRSA); read-out: MBC): 4 µg/mL (≈ 9.33 µM)
